For this experiment, the target named is T1, KRAS 4B G12C protein (Homo sapiens, UniProt P01116, G12C).
T1 construct: This protein contained 188 amino acids in total, including an N-terminal 6-Histidine tag; made in house; host or cells: E. coli BL21
Description: In vitro covalent adduct formation (CAF) assay by LC-MS. It counts as binding. The conditions noted are these: compound 10 μM, protein 5 μM, 22° C., percentage of protein bound by the compound. The procedure: In vitro covalent adduct formation assay: Covalent adduct formation (CAF) reactions between Cys12 of the KRAS 4B G12C protein and some of the compounds of Table 1 were measured in vitro using liquid chromatography-mass spectrometry (LC-MS).
Recombinant Human KRAS 4B protein containing the G12C mutation was used in compound screening experiments. This protein contained 188 amino acids in total, including an N-terminal 6-Histidine tag, followed by a Tobacco Etch Virus (TEV) tag, followed by residues 1-169 of the native KRAS 4B sequence. The exact mass of the protein was 21,310 Da as determined by mass spectrometry. The full amino acid sequence is shown below:
The recombinant protein was expressed in E. coli BL21 cells and purified using affinity chromatography via a Ni-NTA column. […] Pure KRAS 4B G12C protein was diluted to a concentration of 5 μM in Tris Buffered Saline, pH 7.4. The compounds were dissolved in DMSO and added to the diluted protein to make a 10 μM concentration. The total DMSO concentration in the reaction was 4%. The reaction was mixed by pipetting and incubated at 22° C. for one hour. Aliquots of the reaction were taken over time and diluted 2:1 in 0.1% formic acid. The intact mass of the protein samples was measured by LC-MS using a QExactive+ mass spectrometer (Thermo Scientific). An amount of 500 ng total protein was injected onto a C8 reverse phase column, eluted with a seven-minute gradient of 30%-90% acetonitrile/0.1% formic acid, and analyzed for intact mass by the mass spectrometer. Adducts identified were confirmed to be within 1 Dalton of the expected mass, and the relative ratios of free:adduct protein were used to quantify the percentage of protein bound by the compound. CAF reactions were run in duplicate, with a typical variability of ±5%.

Consider `C=CC(=O)N1CCN(c2nc(OC[C@@H]3CCCN3C)nc3c2CN(Cc2cccc(F)c2)C3)C[C@@H]1CC#N` [1-35], for which the “CAF (10 minutes/60 minutes) at 10 micromolar: 10 minutes” value (from here on “CAF … at 10 micromolar: 10 minutes”) was 56% and the “CAF (10 minutes/60 minutes) at 10 micromolar: 60 minutes” value (shortened to “CAF … at 10 micromolar: 60 minutes”) was determined as 91%.
In the case of `C#C[C@H]1CN(C(=O)C=C)CCN1c1nc(OC[C@@H]2CCCN2C)nc2c1CN(C1CCc3ccccc31)C2` (stereo partly drawn) [1-162, 1-[(3S)-4-[6-(2,3-dihydro-1H-inden-1-yl)-2-{[(2S)-1-methylpyrrolidin-2-yl]methoxy}-5H,7H-pyrrolo[3,4-d]pyrimidin-4-yl]-3-ethynylpiperazin-1-yl]prop-2-en-1-one], the “CAF … at 10 micromolar: 10 minutes” value is 2% and the “CAF … at 10 micromolar: 60 minutes” value turned out to be 12%.
In the case of `C=CC(=O)N1CCN(c2nc(OC[C@@H]3CCCN3C)nc3c2CN(C2CCc4ccccc42)C3)C[C@@H]1C(N)=O` (stereo partly drawn) [1-159, (2R)-1-acryloyl-4-(6-(2,3-dihydro-1H-inden-1-yl)-2-(((S)-1-methylpyrrolidin-2-yl)methoxy)-6,7-dihydro-5H-pyrrolo[3,4-d]pyrimidin-4-yl)piperazine-2-carboxamide], the “CAF … at 10 micromolar: 10 minutes” value came out at 10% and the “CAF … at 10 micromolar: 60 minutes” value is reported as 19%.
`C=C(F)C(=O)N1CCN(c2nc(OC[C@@H]3CCCN3C)nc3c2CN(Cc2nc(NC)ccc2Cl)C3)C[C@@H]1CC#N` [1-361]: the “CAF … at 10 micromolar: 10 minutes” value is 16% and the “CAF … at 10 micromolar: 60 minutes” value is recorded as 61%.
For the molecule `C=CC(=O)N1CCN(c2nc(OC[C@@H]3CCCN3C)nc3c2CN(Cc2c(Cl)cccc2OC)C3)C[C@@H]1CC(F)(F)F` [1-125], the “CAF … at 10 micromolar: 10 minutes” value came to 0%/ 0% and the “CAF … at 10 micromolar: 60 minutes” value was 0%/ 0%.
For `C=CC(=O)N1CCN(c2nc(OC[C@@H]3CCCN3C)nc3c2CN(Cc2ccccc2C(F)(F)F)C3)C[C@@H]1CC#N` [1-213], the “CAF … at 10 micromolar: 10 minutes” value is 94% and the “CAF … at 10 micromolar: 60 minutes” value is given as 95%.
Regarding `C=CC(=O)N1CCN(c2nc(OC[C@@H]3CCCN3C)nc3c2CN(Cc2cc(F)ccc2F)C3)C[C@@H]1CC#N` [1-27], the “CAF … at 10 micromolar: 10 minutes” value was 68% and the “CAF … at 10 micromolar: 60 minutes” value is recorded as 97%.
As to `C=CC(=O)N1CCN(c2nc(OC[C@@H]3CCCN3C)nc3c2CN(C2CCOc4ccccc42)C3)C[C@@H]1CC#N` (stereo partly shown) [1-86], the “CAF … at 10 micromolar: 10 minutes” value is reported as 59% and the “CAF … at 10 micromolar: 60 minutes” value worked out at 93%.
As for `C=CC(=O)N1CCN(c2nc(OC[C@@H]3CCCN3C)nc3c2CN(Cc2c(Cl)cccc2OC)C3)C[C@@H]1C(O)C(F)(F)F` (stereo partly shown) [1-98], the “CAF … at 10 micromolar: 10 minutes” value amounted to 0% and the “CAF … at 10 micromolar: 60 minutes” value amounted to 1%.
Regarding `C#Cc1ccccc1CN1Cc2nc(OC[C@@H]3CCCN3C)nc(N3CCN(C(=O)C=C)[C@@H](CC#N)C3)c2C1` [1-235], the “CAF … at 10 micromolar: 10 minutes” value turned out to be 0%/ 0% and the “CAF … at 10 micromolar: 60 minutes” value was 0%/ 0%.
In the case of `C=CC(=O)N1CCN(c2nc(OC[C@@H]3CCCN3C)nc3c2CN(Cc2cc(OC)ccc2C)C3)C[C@@H]1CC#N` [1-6], the “CAF … at 10 micromolar: 10 minutes” value came to 65% and the “CAF … at 10 micromolar: 60 minutes” value turned out to be 93%.
For the molecule `C=CC(=O)N1CCN(c2nc(OC[C@@H]3CCCN3C)nc3c2CN(C2CCc4ccccc42)C3)C[C@@H]1CNC(C)=O` (stereo partly shown) [1-217], the “CAF … at 10 micromolar: 10 minutes” value is 0%/ 0% and the “CAF … at 10 micromolar: 60 minutes” value was 0%/ 0%.
With `C=C(F)C(=O)N1CCN(c2nc(OC[C@@H]3CCCN3C)nc3c2CN(Cc2cc(O)c(C)cc2Cl)C3)C[C@@H]1CC#N` [1-329], the “CAF … at 10 micromolar: 10 minutes” value stood at 2% and the “CAF … at 10 micromolar: 60 minutes” value is given as 22%.
`C=CC(=O)N1CCN(c2nc(OC[C@@H]3CCCN3C)nc3c2CN(S(=O)(=O)c2cccc4ccccc24)C3)C[C@@H]1CC#N` [1-238]: the “CAF … at 10 micromolar: 10 minutes” value is on record as 73% and the “CAF … at 10 micromolar: 60 minutes” value came to 95%.
Consider `C=CC(=O)N1C2CC(=O)CC1CN(c1nc(OC[C@@H]3CCCN3C)nc3c1CN(Cc1cc(O)ccc1Cl)C3)C2` [1-328], for which the “CAF … at 10 micromolar: 10 minutes” value was 14% and the “CAF … at 10 micromolar: 60 minutes” value came to 39%.
As for `C=CC(=O)N1CC2CCC1CN2c1nc(OC[C@@H]2CCCN2C)nc2c1CN(Cc1cc(OC)ccc1Cl)C2` (stereo partly shown) [1-161], the “CAF … at 10 micromolar: 10 minutes” value is on record as 0%/ 0% and the “CAF … at 10 micromolar: 60 minutes” value was found to be 0%/ 0%.
Regarding `C=CC(=O)N1CCN(c2nc(OC[C@@H]3CCCN3C)nc3c2CN(C2CCc4ccccc42)C3)C[C@@H]1C(O)C(F)(F)F` (stereo partly shown) [1-118], the “CAF … at 10 micromolar: 10 minutes” value was 0%/ 0% and the “CAF … at 10 micromolar: 60 minutes” value is recorded as 0%/ 0%.
Take `C=CC(=O)N1CCN(c2nc(Oc3cccc4c3CCN(C)C4)nc3c2CN(C2CCc4ccccc42)C3)C[C@@H]1CC#N` (stereo partly shown) [1-171]: the “CAF … at 10 micromolar: 10 minutes” value was 9% and the “CAF … at 10 micromolar: 60 minutes” value amounted to 29%.
Consider `C=CC(=O)N1CC2CC(=O)CC(C1)N2c1nc(OC[C@@H]2CCCN2C)nc2c1CN(C1CCc3ccccc31)C2` (stereo partly shown) [1-251], for which the “CAF … at 10 micromolar: 10 minutes” value was 0%/ 0% and the “CAF … at 10 micromolar: 60 minutes” value is given as 0%/ 0%.
In the case of `C=CC(=O)N1CCN(c2nc(OC[C@@H]3CCCN3C)nc3c2CN(Cc2c(O)cccc2F)C3)[C@@H](C)C1` [1-47], the “CAF … at 10 micromolar: 10 minutes” value is reported as 11% and the “CAF … at 10 micromolar: 60 minutes” value turned out to be 43%.
For `C=CC(=O)N1CCN(c2nc(CC[C@@H]3CCCN3C)nc3c2CN(C2CCc4ccccc42)C3)C[C@@H]1CC#N` (stereo partly shown) [1-146], the “CAF … at 10 micromolar: 10 minutes” value is recorded as 7% and the “CAF … at 10 micromolar: 60 minutes” value was determined as 33%.
For `C=CC(=O)N1CCN(c2nc(OC[C@@H]3CCCN3C)nc3c2CN(Cc2ccccc2CC(C)C)C3)C[C@@H]1CC#N` [1-191], the “CAF … at 10 micromolar: 10 minutes” value came to 52% and the “CAF … at 10 micromolar: 60 minutes” value is given as 73%.
As for `C=CC(=O)N1CCN(c2nc(OC[C@@H]3CCCN3C)nc3c2CN(Cc2c(F)cccc2F)C3)C[C@@H]1CC#N` [1-61], the “CAF … at 10 micromolar: 60 minutes” value is “NA/ 80%”.
Turning to `C=C(F)C(=O)N1CCN(c2nc(OC[C@@H]3CCCN3C)nc3c2CN(C2CCc4cccc(Cl)c42)C3)C[C@@H]1CC#N` (stereo partly shown) [1-127], the “CAF … at 10 micromolar: 10 minutes” value was 64% and the “CAF … at 10 micromolar: 60 minutes” value is recorded as 95%.
Take `C=CC(=O)N1CCN(c2nc(OCc3ccccn3)nc3c2CN(C2CCc4ccccc42)C3)C[C@@H]1CC#N` (stereo partly shown) [1-132]: the “CAF … at 10 micromolar: 10 minutes” value stood at 24% and the “CAF … at 10 micromolar: 60 minutes” value is on record as 68%.
Consider `C=CC(=O)N1CCN(c2nc(OC[C@@H]3CCCN3CC)nc3c2CN(C2CCc4ccccc42)C3)C[C@@H]1CC#N` (stereo partly shown) [1-175], for which the “CAF … at 10 micromolar: 10 minutes” value is on record as 60% and the “CAF … at 10 micromolar: 60 minutes” value was 82%.
Regarding `C=CC(=O)N1CCN(c2nc(OC[C@@H]3CCCN3C)nc3c2CN(C2CCc4ccccc42)C3)C[C@@H]1CC(F)(F)F` (stereo partly shown) [1-100], the “CAF … at 10 micromolar: 10 minutes” value is listed as 0% and the “CAF … at 10 micromolar: 60 minutes” value is reported as 5%.
Take `C=CC(=O)N1CCN(c2nc(OC[C@@H]3CCCN3C)nc3c2CN(C2CCc4ccccc42)C3)C[C@@H]1Cn1nccn1` (stereo partly shown) [1-215]: the “CAF … at 10 micromolar: 10 minutes” value is 0% and the “CAF … at 10 micromolar: 60 minutes” value is on record as 7%.
On to `C=CC(=O)N1CCN(c2nc(OC[C@@H]3CCCN3C)nc3c2CN(C2CCc4ccccc42)C3)C[C@@H]1CSC` (stereo partly shown) [1-195], for which the “CAF … at 10 micromolar: 10 minutes” value is 0% and the “CAF … at 10 micromolar: 60 minutes” value is 2%.
Consider `C=CC(=O)N1CCN(c2nc(OC)nc3c2CN(Cc2cc(OC)ccc2Cl)C3)C[C@@H]1CC#N` [1-74], for which the “CAF … at 10 micromolar: 10 minutes” value is on record as 2% and the “CAF … at 10 micromolar: 60 minutes” value was 21%.
With `C=CC(=O)N1C[C@H](C)N(c2nc(OC[C@@H]3CCCN3C)nc3c2CN(Cc2c(C)ccc4[nH]ncc24)C3)C[C@H]1C` [1-22], the “CAF … at 10 micromolar: 10 minutes” value is on record as 1% and the “CAF … at 10 micromolar: 60 minutes” value is 15%.
The matching figures for `C=CC(=O)N1CCN(c2nc(OC[C@@H]3CCCN3C)nc3c2CN(Cc2cc(F)cc(F)c2)C3)[C@@H](C)C1` [1-13]: 0%/ 0% and 0%/ 0%.
The matching figures for `C=CC(=O)N1CCN(c2nc(OC[C@@H]3CCCN3C)nc3c2CN(C(C)c2ccccc2C(C)C)C3)C[C@@H]1CC#N` (stereo partly shown) [1-189]: 57% and 61%.
Take `C=CC(=O)N1CCN(c2nc(OC[C@@H]3CCCN3C)nc3c2CN(c2cccc4cccc(C)c24)C3)C[C@@H]1CC(F)(F)F` [1-48]: the “CAF … at 10 micromolar: 10 minutes” value turned out to be 0% and the “CAF … at 10 micromolar: 60 minutes” value stood at 1%.

The values above are taken from US20210292330A1, “PYRROLIDINE-FUSED HETEROCYCLES” (Erasca, Inc., priority 2020, published 2021).
